This is an account of results in patent US6767890B1, “Peptides having anti-cancer and anti-inflammatory activity” (priority 1998, dated 2004).

What is called % Inhibition is the change of the read-out against control, counted positive when it falls.

Values joined by “and” are separate entries in the source; they are usually repeats but may differ in a detail not shown here. Equal entries are not always repeated.

For experiment [1], the target named is T1, Leukotriene B4 (Homo sapiens, UniProt Q15722).
T1 construct: human U937; endogenous in cells; host or cells: U937 cells
T1 sequence (Q15722 whole entry): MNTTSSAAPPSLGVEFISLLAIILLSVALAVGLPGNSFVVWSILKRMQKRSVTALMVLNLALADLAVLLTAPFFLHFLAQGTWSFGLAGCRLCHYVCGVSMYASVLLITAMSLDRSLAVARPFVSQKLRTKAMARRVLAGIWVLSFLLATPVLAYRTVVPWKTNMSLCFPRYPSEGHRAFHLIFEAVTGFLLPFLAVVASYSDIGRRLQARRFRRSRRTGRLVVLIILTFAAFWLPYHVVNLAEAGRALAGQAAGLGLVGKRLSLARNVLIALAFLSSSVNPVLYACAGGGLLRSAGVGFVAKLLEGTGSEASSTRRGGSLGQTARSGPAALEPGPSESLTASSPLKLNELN
As to the kind of experiment: Leukotriene B4 radioligand binding. To be noted: 10.0 μM; specific binding of [3H]LTB4; negative = stimulation. As to the method: (§1) The peptide was further screened in vitro in a variety of enzyme and biochemical assays. Methods employed were adapted from the scientific literature to maximize reliability and reproducibility.
(§2) Results presented in Table 10, “Results,” are the average of duplicate determinations, unless otherwise noted.
(§3) Radioligand binding assays were performed under conditions described in Table 8, “Experimental Conditions.” Radioligands employed in this study are given in Table 8, and commercial sources and catalog numbers of the radioligands are provided in Table 7, “Material Sources.” Unlabeled, blocking ligands employed this study are listed in Table 8, “Experimenal Conditions,” along with the commercial sources and catalog number of the unlabeled ligand. The concurrent reference compound (control) employed in each assay is listed in Table 9, “Reference Compound Data,” along with the commercial supplier and catalog number of the compound. Where receptors have been obtained through recombinant expression techniques, the species from which the cDNA was obtained, and the type of expression system employed (mammalian, insect, bacterial) is also given Table 7.
(§4) Maximum total binding and nonspecific binding were determined each time each assay was run. Nonspecific binding was defined as the proportion of total binding not displaced by unlabeled ligand specific for the receptor. […]

In experiment [2] the target is Ca++ Ch.-L, Dihydropyridine (Rattus norvegicus, UniProt P22002). Kind of experiment: Ca++ Ch.-L, Dihydropyridine radioligand binding. The settings on record: 10.0 μM; specific binding of [3H]Nitrendipine; negative = stimulation. As to the method: as §1, §2, §3, §4
Sequence of Ca++ Ch.-L, Dihydropyridine (P22002 whole entry): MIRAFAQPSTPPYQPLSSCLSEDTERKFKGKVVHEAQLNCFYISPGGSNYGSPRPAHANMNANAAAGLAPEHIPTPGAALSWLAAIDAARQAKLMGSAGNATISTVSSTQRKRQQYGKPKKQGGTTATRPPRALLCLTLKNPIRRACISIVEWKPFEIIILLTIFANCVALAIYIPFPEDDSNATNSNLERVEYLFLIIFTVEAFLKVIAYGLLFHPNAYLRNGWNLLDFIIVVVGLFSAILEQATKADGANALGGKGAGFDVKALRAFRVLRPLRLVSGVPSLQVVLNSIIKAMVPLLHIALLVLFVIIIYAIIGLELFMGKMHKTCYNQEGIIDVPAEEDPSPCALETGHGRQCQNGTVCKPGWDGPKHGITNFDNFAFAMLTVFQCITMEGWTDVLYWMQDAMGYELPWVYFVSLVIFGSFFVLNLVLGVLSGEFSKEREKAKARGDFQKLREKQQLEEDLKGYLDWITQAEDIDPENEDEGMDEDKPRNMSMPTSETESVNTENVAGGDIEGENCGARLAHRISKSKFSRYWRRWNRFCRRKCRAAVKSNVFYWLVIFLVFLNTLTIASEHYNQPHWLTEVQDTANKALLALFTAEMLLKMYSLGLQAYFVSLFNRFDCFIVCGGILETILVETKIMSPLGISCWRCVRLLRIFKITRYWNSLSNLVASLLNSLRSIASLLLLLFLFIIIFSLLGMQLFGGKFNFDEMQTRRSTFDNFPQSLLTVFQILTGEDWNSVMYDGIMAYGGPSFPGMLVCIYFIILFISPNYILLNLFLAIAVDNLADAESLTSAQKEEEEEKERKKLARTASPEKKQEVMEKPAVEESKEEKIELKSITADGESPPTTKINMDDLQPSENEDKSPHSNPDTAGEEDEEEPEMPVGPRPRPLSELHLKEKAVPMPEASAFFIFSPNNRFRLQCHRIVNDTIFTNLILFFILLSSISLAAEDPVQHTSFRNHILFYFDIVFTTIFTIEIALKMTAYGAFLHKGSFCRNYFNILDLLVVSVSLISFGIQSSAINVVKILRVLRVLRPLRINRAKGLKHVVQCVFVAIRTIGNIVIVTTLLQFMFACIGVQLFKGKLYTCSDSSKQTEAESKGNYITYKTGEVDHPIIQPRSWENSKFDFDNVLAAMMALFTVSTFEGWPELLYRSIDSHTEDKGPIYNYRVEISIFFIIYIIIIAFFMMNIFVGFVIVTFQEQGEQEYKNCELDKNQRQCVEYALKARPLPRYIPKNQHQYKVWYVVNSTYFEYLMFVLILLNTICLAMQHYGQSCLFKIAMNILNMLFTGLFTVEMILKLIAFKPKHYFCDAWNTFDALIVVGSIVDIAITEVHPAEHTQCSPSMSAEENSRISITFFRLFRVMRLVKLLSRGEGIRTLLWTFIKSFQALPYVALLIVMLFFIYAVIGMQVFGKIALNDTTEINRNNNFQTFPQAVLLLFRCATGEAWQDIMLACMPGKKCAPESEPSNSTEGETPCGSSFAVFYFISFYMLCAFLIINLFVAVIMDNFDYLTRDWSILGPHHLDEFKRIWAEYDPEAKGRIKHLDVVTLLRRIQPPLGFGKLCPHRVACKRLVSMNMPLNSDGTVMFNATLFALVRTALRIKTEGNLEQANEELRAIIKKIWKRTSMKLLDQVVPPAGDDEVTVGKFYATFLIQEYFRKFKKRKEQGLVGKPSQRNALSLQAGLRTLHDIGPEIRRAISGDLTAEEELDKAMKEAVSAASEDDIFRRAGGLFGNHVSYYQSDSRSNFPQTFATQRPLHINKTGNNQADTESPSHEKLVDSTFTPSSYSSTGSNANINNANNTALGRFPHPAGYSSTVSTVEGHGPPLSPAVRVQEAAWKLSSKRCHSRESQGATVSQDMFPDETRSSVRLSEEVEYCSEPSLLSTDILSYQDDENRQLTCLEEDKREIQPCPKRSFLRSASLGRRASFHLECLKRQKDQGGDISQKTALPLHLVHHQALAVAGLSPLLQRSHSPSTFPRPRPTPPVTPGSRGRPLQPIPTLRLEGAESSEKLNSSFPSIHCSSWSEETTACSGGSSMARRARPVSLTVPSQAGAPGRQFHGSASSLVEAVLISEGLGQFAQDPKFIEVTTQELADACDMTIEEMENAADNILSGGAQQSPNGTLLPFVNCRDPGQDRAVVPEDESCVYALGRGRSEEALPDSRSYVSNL
Experiment [3] relates to T2, Ca++/Calmodulin Dep. PK II.
T2 construct: other: 100.0 μM; average of duplicate; negative = stimulation
Kind of experiment: Ca++/Calmodulin Dep. PK II enzyme assay. It is filed as biochemical, rat. The settings on record: 100.0 μM; average of duplicate; negative = stimulation. As for the experimental part: (§5) The peptide was further screened in vitro in a variety of enzyme and biochemical assays. Methods employed were adapted from the scientific literature to maximize reliability and reproducibility. The primary literature reference for each assay is listed in Table 11 opposite the results for each assay.
as §2
(§6) Reference compounds were tested concurrently at 5 concentrations as an integral part of each assay to ensure the validity of the results obtained.
(§7) Enzyme assays were performed under conditions described in Table 8, “Experimental Conditions.”. The commercial suppliers and catalog numbers of substrates employed in this study are given in Table 7, “Material Sources.” The name, commercial source, and catalog numbers of concurrent reference compounds (controls) employed in this study are given in Table 9, “Reference Compound Data.” The reaction catalyzed by each enzyme is listed in Table 8, “Experimental Conditions.”
(§8) Biochemical assay results are presented in Table 10, as the percent inhibition of specific binding or activity, and unless noted are the average of duplicate tubes tested at each concentration.

For experiment [4], the system named is vasculature of chick embryos. Kind of experiment: CAM assay. It is filed as in vivo. As to the method: Method: The method used was that described in D. Knighton, D. Ausprunk, D. Tapper, and J. Folkman, “Avascular and Vascular Phases of Tumour Growth in the Chick Embryo.” J. Cancer 35:347-355 (1977) Procedure: The test compounds were suspended in sterile saline and then applied to methylcellulose discs, ¼ inch diameter with a micropipette and allowed to air dry at a concentration of 10 μg/disc.
The test was graded as follows:
The following scores are based on the observation of at least 10 chick embryos.

Experiment [5] has as its target T3, Cyclooxygenase-2 (Ovis aries, UniProt P79208).
T3 construct: sheep placenta; from tissue; host or cells: sheep placenta
Kind of experiment: Cyclooxygenase-2 enzyme assay. The settings on record: 300.0 μM; average of duplicate; negative = stimulation. It counts as biochemical, sheep. As for the experimental part: as §1
(§9) Unless otherwise indicated, the peptide was tested in duplicate at the concentrations indicated for each assay. Results presented in Table 10, “Results,” are the average of duplicate determinations, unless otherwise noted.
as §7, §8

In experiment [6] the test system is TNF-α. As to the kind of experiment: TNF-α radioligand binding. The arrangement: species or system human. To be noted: 10.0 μM; specific binding of [125I]TNF-alpha; negative = stimulation. As for the experimental part:
as §1, §2, §3, §4

The target of experiment [7] is T4, PLA2, Pancreatic (Sus scrofa, UniProt P00592).
T4 construct: porcine; from tissue; host or cells: porcine pancreas
T4 sequence (P00592 23-146): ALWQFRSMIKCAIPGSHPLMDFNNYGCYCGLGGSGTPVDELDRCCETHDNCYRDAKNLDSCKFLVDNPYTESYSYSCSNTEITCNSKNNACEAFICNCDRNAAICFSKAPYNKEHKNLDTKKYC
As to the kind of experiment: PLA2, Pancreatic enzyme assay. It is filed as biochemical, porcine. The settings on record: 300.0 μM; average of duplicate; negative = stimulation. As for the experimental part: as §5, §2, §6, §7, §8

The target in experiment [8] is T5, Collagenase IV (Homo sapiens, UniProt P14780).
T5 construct: human U937; endogenous in cells; host or cells: U937 cells
T5 sequence (P14780 94-707): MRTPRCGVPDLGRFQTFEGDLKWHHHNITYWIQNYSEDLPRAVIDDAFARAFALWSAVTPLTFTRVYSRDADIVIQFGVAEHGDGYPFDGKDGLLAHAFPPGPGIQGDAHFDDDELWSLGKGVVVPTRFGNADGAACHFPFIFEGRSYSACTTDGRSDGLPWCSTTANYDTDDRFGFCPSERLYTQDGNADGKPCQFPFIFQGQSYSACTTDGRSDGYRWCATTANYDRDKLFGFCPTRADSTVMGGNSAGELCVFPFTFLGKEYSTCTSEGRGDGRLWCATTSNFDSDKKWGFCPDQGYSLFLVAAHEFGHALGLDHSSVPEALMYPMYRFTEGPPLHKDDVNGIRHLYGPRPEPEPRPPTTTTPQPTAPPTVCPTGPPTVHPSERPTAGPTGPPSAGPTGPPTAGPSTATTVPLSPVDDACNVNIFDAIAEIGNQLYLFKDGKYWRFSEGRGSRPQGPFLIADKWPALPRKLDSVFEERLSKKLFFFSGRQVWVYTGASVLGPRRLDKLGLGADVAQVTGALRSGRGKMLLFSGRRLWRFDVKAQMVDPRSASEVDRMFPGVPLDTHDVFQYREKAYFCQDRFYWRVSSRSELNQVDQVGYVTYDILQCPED
Kind of experiment: Collagenase IV enzyme assay. To be noted: 100.0 μM; average of duplicate; negative = stimulation. It counts as biochemical. As to the method:
as §5, §2, §6, §7, §8

Experiment [9] has as its target Protein Kinase C - γ (Oryctolagus cuniculus, UniProt P10829). As to the kind of experiment: Protein Kinase C - γ enzyme assay. It counts as biochemical, rabbit. The settings on record: 100.0 μM; average of duplicate; negative = stimulation. As to the method:
as §1, §9, §7, §8

For experiment [10], the target named is T6, histamine H3 receptor (Cavia porcellus, UniProt Q9JI35).
T6 construct: ileum obtained from Duncan Hartley derived male or female guinea pigs; from tissue; host or cells: guinea pig ileum segment, field-stimulated
T6 sequence (Q9JI35 whole entry): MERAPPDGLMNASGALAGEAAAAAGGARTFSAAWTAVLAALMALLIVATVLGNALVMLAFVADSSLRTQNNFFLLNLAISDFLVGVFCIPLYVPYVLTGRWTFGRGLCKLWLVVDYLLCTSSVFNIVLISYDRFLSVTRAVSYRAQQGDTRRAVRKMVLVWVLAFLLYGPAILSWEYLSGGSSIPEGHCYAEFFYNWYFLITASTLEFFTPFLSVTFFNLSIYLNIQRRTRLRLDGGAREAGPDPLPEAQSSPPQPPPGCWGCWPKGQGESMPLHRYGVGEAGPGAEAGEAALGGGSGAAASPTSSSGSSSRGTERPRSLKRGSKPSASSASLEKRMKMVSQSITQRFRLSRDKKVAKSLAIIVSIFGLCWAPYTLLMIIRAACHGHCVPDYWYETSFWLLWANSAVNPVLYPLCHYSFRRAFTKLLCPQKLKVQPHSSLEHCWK
As to the kind of experiment: Histamine H3 Agonism/Antagonism, guinea pig ileum. The settings on record: Peptide 30 μM, Thioperamide 0.3 μM. It is filed as cell-based. As to the method: A segment of ileum obtained from Duncan Hartley derived male or female guinea pigs weighing 325±25 gms and sacrificed by CO2 overexposure were used. The tissue was placed under 0.5 g tension in a 10 ml bath containing Kreb's solution pH 7.4 and pyrilamine (0.3 μM) at 32° C. and subjected to field stimulation (70% of maximum voltage, 0.1 Hz, 0.5 millisecond). Test substance (30 μM)-induced reduction of isometrically recorded contractions 50 percent or more (≧50%) within 5 minutes, relative to control 0.3 μM R-α-methylhistamine response, indicated possible histamine H3 receptor agonist activity. At a test substance concentration where no significant agonist activity was seen, ability to inhibit R-α-methylhistamine-induced response by 50 percent or more (≧50%) indicated histamine H3 receptor antagonist activity. Each concentration was tested on two separate preparations.

For experiment [11], the target named is T7, Protease - Elastase (Homo sapiens, UniProt P08246).
T7 construct: neutrophils; endogenous in cells; host or cells: human neutrophils
T7 sequence (P08246 30-267): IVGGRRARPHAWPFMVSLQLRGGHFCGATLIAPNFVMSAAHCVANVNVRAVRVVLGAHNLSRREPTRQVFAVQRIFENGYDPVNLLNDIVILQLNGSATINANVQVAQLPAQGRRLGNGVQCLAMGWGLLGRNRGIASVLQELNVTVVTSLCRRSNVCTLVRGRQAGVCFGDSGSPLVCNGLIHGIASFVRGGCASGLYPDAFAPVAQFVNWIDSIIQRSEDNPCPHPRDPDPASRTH
Kind of experiment: Protease - Elastase enzyme assay. It is filed as biochemical. To be noted: 30.0 μM; average of duplicate; negative = stimulation. As to the method: as §5, §2, §6, §7, §8

Turning to LEU-PRO-PRO-SER-ARG [Peptide], the “% Inhibition” value in experiment [1] is given as 8%; in experiment [2], 2%; in experiment [3], 12%; in experiment [5], 2%; in experiment [6] it was −11%; in experiment [7], −11%. Further, the “% Inhibition” value in experiment [8] is listed as 2%; in experiment [9], −6%; in experiment [11], −11%. Besides, the “CAM assay antiangiogenesis score” value in experiment [4] (10 μg/disc on methylcellulose discs, at least 10 chick embryos, graded 0 to +4) amounted to 3.6. Also, the “inhibited proliferation of vacularization” value in [4] (CAM assay, 10 μg/disc) is reported as “approximately 95%”. Further, in experiment [10] (average of two preparations, R(α)-Methylhistamine 0.3 μM), the “Agonism, Ave.” value worked out at 4%. Besides, the “Antagonism, Ave.” value in [10] (average of two preparations) turned out to be 4%. Besides, the Antagonism in experiment [10] (individual preparation, reduction of 0.3 μM R(α)-methylhistamine-induced relaxation) was 7% and 0%. In addition, the Agonism in experiment [10] (individual preparation, relaxation within 5 minutes relative to 0.3 μM R-α-methylhistamine, R(α)-Methylhistamine 0.3 μM (0.1 printed in r13)) was 0% and 4%.
